In ChEMBL document CHEMBL1145731, “A green fluorescent chemosensor for amino acids provides a versatile high-throughput screening (HTS) assay for proteases” (Bioorg Med Chem Lett, 2003) one finds EC50 data, which are given here for 10 molecules.

Structures are written as SMILES.

A short description of the assay: Concentration required for obtaining 50% of the fluorescence intensity of copper-free calcein 1, in bovine serum albumin.
One may read the EC50 as the concentration giving half of the maximal effect. For `C[C@H](N)C(=O)O` [ALANINE], the EC50 was ~800 µM.
As for `N[C@@H](CS)C(=O)O` [CYSTEINE], the EC50 was 20 µM.
On to `O=C(O)CN(CCN(CC(=O)O)CC(=O)O)CC(=O)O` [EDETIC ACID], for which the EC50 was 10 µM.
Turning to `NCC(=O)O` [GLYCINE], the EC50 is 500 µM.
As for `N[C@@H](Cc1c[nH]cn1)C(=O)O` [HISTIDINE], the figure is 10 µM.
Consider `CC(C)CC(N)C(N)=O` (stereo not given) [LEUCINAMIDE], for which the EC50 is 12000 µM.
Consider `CC(C)C[C@H](N)C(=O)O` [LEUCINE], for which the EC50 is 5000 µM.
Turning to `CSCC[C@H](N)C(=O)O` [METHIONINE], the concentration for a half-maximal effect (EC50) is 800 µM.
As for `N[C@@H](CO)C(=O)O` [SERINE], the figure is 700 µM.
As for `CC(C)[C@H](N)C(=O)O` [VALINE], the figure is 1500 µM.
